Data: patent publication US6780854B2, “Orally active androgens” (Akzo Nobel NV, priority 1999, dated 2004)

Columns and labels:
serum LH = assay: LH suppression assay: determination of oral activity; type: in vivo; settings: Rattus norvegicus; mature male castrated rats; po daily for 4 days in arachis oil; serum LH 3 hours after last oral dose; read-out: ED50 (po) required to suppress serum LH for 50% (±10%)
Protocol: The LH Suppression Assay: Determination of Oral Activity
The in vivo potency (po) of several androgens of the invention was determined in a mature male castrated rat model, in comparison wih Segaloff compound. In this model serum LH is high (50× fold higher than with intact rats, due to the absence of the negative feedback of testicular testosterone). These rats are po treated for 4 days daily with a given compound of the invention in a suspension fluid of arachis oil. Before dosing and 3 hours after the last oral dose blood is collected via tail vene and in the serum LH is determined. Potency (po) of the androgens (ED50) are expressed as the amount (mg/kg) of androgen which suppresses serum LH for 50% (±10%).
The rat LH Time-Resolved Immuno Fluorometric Assay (TR-IFMA) has been developed in house using home made reagents, a monoclonal catching antibody directed against the β-subunit of human chorion gonadotrophin (hCG, which cross react with rat β-subunit) and a biotin labelled detecting antibody (rabbit polyclonal antibody directed against the alfa-subunit of recombinant rat LH). Recombinant rat LH was prepared according to the methods described by Hakola et al (1997). In this two-site-IFMA, only intact rat LH is determined by a final incubation with streptavidin-europium. The detection in the IFMA is based on fluorescence of the lanthanide europium during a relative long exitation period. The concentration range of rat LH standard is 0.001-10 ng/ml, for optimal accuracy measurements of serum LH serum samples were diluted 8-times with assay buffer [Hakola, K., Boogaart, P. V., Mulders, J., de Leeuw, R., Schoonen, W., Heyst, J. V., Swolfs, A., Casteren, J. V., Huhtaniemi, I., and Kloosterboer, H. J., Recombinant rat luteinizing hormone; production by Chinese hamster ovary cells, purification and functional characterization, Molecular & Cellular Endocrinology 128, 47 (1997)].

[1] = t1/2 after incubation with human hepatocytes (metabolic stability); type: in vitro ADME; settings: male, cryopreserved human hepatocytes in suspension; 10 nM compound; cryopreserved human hepatocyte suspension, 37° C.; incubations stopped after 0.5, 1 and 3 h; LC-MS/MS
Protocol: Determination of t1′2 of Androgens of the Invention after Incubation with Human Hepatocytes
The half-life of a compound as a result of contact with human hepatocytes holds as a reliable indication of metabolic stability. As it is well known that the absorption of this class of steroids is high, this assay provides an in vitro model for oral activity in humans.
Hepatocytes collected from healthy young (25-45 year) male organ donors were cryo preserved in liquid nitrogen and kept there until use. They were thawed at 37° C. in a waterbath, placed immediately on ice, washed twice in one volume of cold (4° C.) incubation medium [William's medium E (without phenol red) with Glutamax I®, gentamicin 50 μg/ml, insulin 1 μM, hydrocortisone hemisuccinate 10 μM, fetal calf serum 0% (v/v)], counted and the viability checked by Trypan blue exclusion. Cells were incubated as suspensions in 12-wells (non-coated) plates at a nominal density of 0.5×10^6 cells/well in 1.5 ml medium at 37° C. with an air/O2/CO2 mixture (55/40/5). The plates were set on an orbital shaker at approximately 10 rpm.
The hepatocytes were incubated with 10 nM final concentration of the compound to be tested. The incubations were stopped after 0.5, 1 and 3 h by pipetting the whole incubation mixture into a glass tube and adding one volume of acetone on ice. The acetone was dried under a nitrogen flow at room temperature, the volume adjusted to 1.5 ml and the tubes were centrifuged at 4° C. at 10.000×g for 30 min. The de-proteinized supernatants were collected for LC-MS/MS analysis.

Compound | ED50 (serum LH) [mg/kg] | half-life at 10 nM [1] [h]
C[C@@H]1CC2=CC(=O)CC[C@@H]2[C@H]2CC[C@@]3(C)C(=CC[C@@H]3O)[C@@H]21 [Segaloff compound, (7α,17β)-7-Methyl-17-hydroxyestra-4,14-dien-3-one, reference compound] | 5 | 1
CC[C@@H]1CC2=CC(=O)CC[C@@H]2[C@H]2CC[C@@]3(C)C(=CC[C@@H]3O)[C@H]12 [Example 1a, (7α,17β)-7-Ethyl-17-hydroxyestra-4,14-dien-3-one] | 0.2 | 2.62
C=C[C@@H]1CC2=CC(=O)CC[C@@H]2[C@H]2CC[C@@]3(C)C(=CC[C@@H]3O)[C@@H]21 [Example 2, (7α,17β)-7-Ethenyl-17-hydroxyestra-4,14-dien-3-one] | 0.5 | 0.667
